# From patent US20180064808A1, “COMBINATION THERAPY OF BISPECIFIC ANTIBODIES SPECIFIC FOR FAP AND DR5 AND CHEMOTHERAPEUTIC AGENTS” (Hoffmann-La Roche Inc., priority 2014, published 2018)
# Read-outs that look alike come from different tables or passages of the source.
# Assays:
# HCT116 = assay: Combination screen CRC cell lines (CellTiter-Glo); type: cell-based, human; conditions: for IC50: 3 days; for % max. inhibition (mono): first figure of mono/combo; for % max. inhibition (combo): second figure of mono/combo
# Procedure: (§1) A panel of CRC and PDAC cell lines was assessed and combination partners of potential clinical relevance for the respective tumor indications were used for evaluation of combination effects (CRC: irinotecan, oxaliplatin, 5-FU, MDM2 inhibitor (RG7388), Bcl-2 inhibitor (ABT199); PDAC: Abraxane, Paclitaxel, Gemcitabine, Doxorubicin, MDM2i (RG7388), Bc12i (ABT199), Bortezomib, Cyclopamine, PARP inhibitor (PJ34)).
# (§2) Cells were seeded (numbers vary depending on the cell line) in black 96-well microplate with clear, flat bottom and incubated overnight at 37° C. and 5% CO2. After checking the adherence/confluence of cells, the medium was removed and 100 μl of fresh medium containing the corresponding compound was added to each well. A sequential dilution series (1:4) of 8 concentrations per compound (n=3) were used. Corresponding DMSO concentration and media alone were used as controls.
# (§3) After incubation for 3 days at 37° C. and 5% CO2, 100 μl per well CellTiter-Glo reagent (Promega) was added to the plate. Luminescence was measured after 30 minutes agitation at room temperature. IC50-values were calculated with XL-Fit software. Each experiment with one compound was repeated at least twice.
# (§4) Cells were seeded (numbers vary depending on the cell line) in black 96-well microplate with clear, flat bottom and incubated overnight at 37° C. and 5% CO2. After checking the adherence/confluence of cells, the medium was removed and 100 μl of fresh medium containing the corresponding compound or combination was added to each well.
# (§5) A sequential 1:3 dilution series of 9 concentrations of Drozitumab/anti-human-Fc was done on a 96-well PP-V-bottom microplate (n=6). […] 25 μl/well of the Drozitumab/anti-human-Fc series were then transferred to the cells.
# (§6) After incubation for 3 days at 37° C. and 5% CO2 100 μl per well CellTiter-Glo reagent (Promega) were given to the plates. Luminescence was measured after 30 minutes agitation at room temperature.
# (§7) For each concentration of Drozitumab/anti-human-Fc and Drozitumab/anti-human-Fc+compound triplicates were done on the same plate and each experiment was repeated at least twice.
# Aspc1 = assay: Combination screen PDAC cell lines (CellTiter-Glo); type: cell-based; conditions: for IC50: agent alone, 3 days, read-out: IC50 monotherapy; for % max. inhibition (mono): first figure of mono/combo
# Procedure: as §1, §2, §3, §4, §5, §6, §7
# Bxpc3 = assay: Combination screen PDAC cell lines (CellTiter-Glo); type: cell-based; conditions: for IC50: agent alone, 3 days, read-out: IC50 monotherapy
# Procedure: as §1, §2, §3, §4, §5, §6, §7
# Panc1 = assay: Combination screen PDAC cell lines (CellTiter-Glo); type: cell-based; conditions: for IC50: 3 days; for % max. inhibition (mono): first figure of mono/combo
# Procedure: as §1, §2, §3, §4, §5, §6, §7
# HT29 = assay: Combination screen CRC cell lines (CellTiter-Glo); type: cell-based; conditions: for IC50: 3 days; for Fold change IC50 (DR5 ab mono vs combo) / % max. inhibition (combo): n.s. = not significant; for % max. inhibition (combo): second figure of mono/combo; for % max. inhibition (mono): first figure of mono/combo
# Procedure: as §1, §2, §3, §4, §5, §6, §7
# SW480 = assay: Combination screen CRC cell lines (CellTiter-Glo); type: cell-based; conditions: for % max. inhibition (mono): first figure of mono/combo; for % max. inhibition (combo): second figure of mono/combo
# Procedure: as §1, §2, §3, §4, §5, §6, §7
# Capan2 = assay: Combination screen PDAC cell lines (CellTiter-Glo); type: cell-based; conditions: for % max. inhibition (mono): first figure of mono/combo
# Procedure: as §1, §2, §3, §4, §5, §6, §7
# FAP = assay: Binding mode, specificity and species cross-reactivity of FAP binder 28H1
# [1] = clinical studies; cited from earlier work
# [2] = agent alone, read-out: IC50 monotherapy
# [3] = Aspc1, second figure of mono/combo, n.s. = not significant
# [4] = Bxpc3, first figure of mono/combo
# [5] = Bxpc3, second figure of mono/combo, n.s. = not significant
# [6] = Homo sapiens, BXPC-3, 72 h, Bxpc3
# [7] = Capan2, second figure of mono/combo, n.s. = not significant
# [8] = Homo sapiens, PANC-1, 72 h, Panc1, DR5 ab + Fc titrated in combination with 1x IC50 of the named compound, read-out: IC50 Combo
# [9] = Homo sapiens, PANC-1, 72 h, Panc1, agent alone, read-out: IC50 monotherapy
# [10] = Panc1, second figure of mono/combo, n.s. = not significant
# [11] = DR5 ab + Fc titrated in combination with 1x IC50 of the named compound, read-out: IC50 combo
# [12] = Homo sapiens, HT-29, 72 h, agent alone, read-out: IC50 monotherapy
Molecule,"Fold change IC50 (DR5 ab mono vs combo) (Aspc1; Aspc1, n.s. = not significant)","Fold change IC50 (DR5 ab mono vs combo) (Bxpc3; Bxpc3, n.s. = not significant)","Fold change IC50 (DR5 ab mono vs combo) (Panc1; Panc1, n.s. = not significant)",Fold change IC50 (DR5 ab mono vs combo) (HT29),Fold change IC50 (DR5 ab mono vs combo) (SW480; n.s. = not significant),% max. inhibition (combo) (Aspc1; [3]),% max. inhibition (combo) (Bxpc3; [5]),% max. inhibition (mono) (Capan2; Capan2),% max. inhibition (combo) (Capan2; [7]),% max. inhibition (combo) (Panc1; [10]),% max. inhibition (mono) (HCT116),% max. inhibition (combo) (HCT116),% max. inhibition (combo) (HT29),% max. inhibition (mono) (SW480),% max. inhibition (combo) (SW480),also measured
"DR5 ab + Fc: DR5 antibody (drozitumab) + crosslinking via an anti-Fc antibody, surrogate for FAP crosslinking",–,–,–,–,–,–,–,–,–,–,–,–,–,–,–,"IC50 (HCT116; [2]): 0.15 nM; IC50 (Aspc1; Aspc1): 5 nM; IC50 (Bxpc3; Bxpc3): 3 nM; IC50 (Panc1; Panc1, agent alone, read-out: IC50 monotherapy): 262 nM; IC50 (HT29; [2]): 2.5 nM; IC50 (SW480; agent alone, 3 days, read-out: IC50 monotherapy): 140 nM"
"CC1=C2C[C@H]3[C@@H](CC=C4C[C@@H](O)CC[C@@]43C)[C@@H]2CC[C@]12O[C@@H]1C[C@H](C)CN[C@H]1[C@H]2C [Cyclopamine, (3β,23R)-17,23-Epoxyveratraman-3-ol]",–,–,–,–,–,–,–,–,–,–,–,–,–,–,–,% max. inhibition (combo) (Aspc1): n.s.; % max. inhibition (combo) (Bxpc3): 65/95%; % max. inhibition (mono) (Bxpc3): 65/95%; % max. inhibition (combo) (Capan2): n.s.; % max. inhibition (combo) (Panc1): n.s.
"28H1: FAP binder, VH SEQ ID NO. 15 / VL SEQ ID NO. 16, described in WO 2012/020006",–,–,–,–,–,–,–,–,–,–,–,–,–,–,–,"Species Cross-Reactivity (FAP): Human, cyno, murine; Binding Mode (FAP; cell wraps r13-r15: No interference with signaling/protease function, conformational epitope): conformational epitope; Specificity (FAP; cell wraps r17-r18: No binding to hu DPP-IV (CD26, closest FAP homologue)): No binding to hu DPP-IV"
"O=C1[O][Pt]2([NH][C@@H]3CCCC[C@H]3[NH]2)[O]C1=O [Oxaliplatin, [(1R,2R)-cyclohexane-1,2-diamine](ethanedioato-O,O′)platinum(II)]",–,–,–,13,n.s.,–,–,–,–,–,20%,90%,90%,60%,80%,Fold change IC50 (DR5 ab mono vs combo) (HCT116): 4; IC50 (HCT116; [11]): 0.04 nM; IC50 (HCT116; [2]): 5000 nM; IC50 (HT29; [11]): 0.2 nM; IC50 (HT29; [2]): 5000 nM; % max. inhibition (mono) (HT29): 30%
"O=c1[nH]cc(F)c(=O)[nH]1 [5-FU, 5-Fluoro-1H,3H-pyrimidine-2,4-dione]",–,–,–,25,70000,–,–,–,–,–,60%,90%,85%,50%,65%,"IC50 (HCT116; Homo sapiens, HCT-116, 72 h, agent alone, read-out: IC50 monotherapy): 2500 nM; IC50 (HT29; [12]): 2500 nM; % max. inhibition (mono) (HT29): 50%; IC50 (SW480; Homo sapiens, 72 h, DR5 ab + Fc titrated in combination with 1x IC50 of the named compound, 3 days, n.s. = not significant, read-out: IC50 combo): 0.002 nM"
Tigatuzumab: humanized DR5 agonistic antibody,–,–,–,–,–,–,–,–,–,–,–,–,–,–,–,maximally tolerated dose (MTD) [1]: up to 8 mg/kg

# The next lines start with results.
"Fold change IC50 (DR5 ab mono vs combo) (Aspc1; Aspc1, n.s. = not significant)","Fold change IC50 (DR5 ab mono vs combo) (Bxpc3; Bxpc3, n.s. = not significant)","Fold change IC50 (DR5 ab mono vs combo) (Panc1; Panc1, n.s. = not significant)",Fold change IC50 (DR5 ab mono vs combo) (HT29),Fold change IC50 (DR5 ab mono vs combo) (SW480; n.s. = not significant),Molecule,% max. inhibition (combo) (Aspc1; [3]),% max. inhibition (combo) (Bxpc3; [5]),% max. inhibition (mono) (Capan2; Capan2),% max. inhibition (combo) (Capan2; [7]),% max. inhibition (combo) (Panc1; [10]),% max. inhibition (mono) (HCT116),% max. inhibition (combo) (HCT116),% max. inhibition (combo) (HT29),% max. inhibition (mono) (SW480),% max. inhibition (combo) (SW480),also measured
50,15,5,–,–,"Nc1ccn([C@@H]2O[C@H](CO)[C@@H](O)C2(F)F)c(=O)n1 [Gemcitabine, 4-amino-1-(2-deoxy-2,2-difluoro-β-D-erythro-pentofuranosyl)pyrimidin-2(1H)-on]",55%,80%,35%,60%,75%,–,–,–,–,–,"% max. inhibition (mono) (Aspc1; Aspc1): 25%; IC50 (Aspc1; Homo sapiens, 72 h, Aspc1): 2000 nM; % max. inhibition (mono) (Bxpc3; [4]): 45%; IC50 (Bxpc3; [6]): 30 nM; IC50 (Panc1; [8]): 52.9 nM; IC50 (Panc1; [9]): 2000 nM; % max. inhibition (mono) (Panc1; Panc1): 50%"
31,1,8733,–,–,"CC(=O)O[C@H]1C(=O)[C@@]2(C)[C@H]([C@H](OC(=O)c3ccccc3)[C@]3(O)C[C@H](OC(=O)[C@H](O)[C@@H](NC(=O)c4ccccc4)c4ccccc4)C(C)=C1C3(C)C)[C@]1(OC(C)=O)CO[C@@H]1C[C@@H]2O [Paclitaxel, 5β,20-Epoxy-1,2α,4,7β,10β,13α-hexahydroxytax-11-en-9-one 4,10-diacetate 2-benzoate 13-ester with (2R,3S)-N-benzoyl-3-phenylisoserine]",75%,100%,50%,80%,70%,–,–,–,–,–,% max. inhibition (mono) (Aspc1; Aspc1): 30%; % max. inhibition (mono) (Bxpc3; [4]): 80%; IC50 (Bxpc3; [6]): 250 nM; IC50 (Panc1; [8]): 0.03 nM; IC50 (Panc1; [9]): 15 nM; % max. inhibition (mono) (Panc1; Panc1): 50%
n.s.,8,n.s.,–,–,"CC(C)C[C@H](NC(=O)[C@H](Cc1ccccc1)NC(=O)c1cnccn1)B(O)O [Bortezomib, [(1R)-3-methyl-1-[(2S)-3-phenyl-2-(pyrazin-2-ylformamido)propanamido]butyl]boronic acid]",n.s.,100%,40%,95%,n.s.,–,–,–,–,–,"IC50 (Aspc1; Homo sapiens, 72 h, Aspc1): 30 nM; % max. inhibition (mono) (Bxpc3; [4]): 60%; IC50 (Bxpc3; [6]): 10 nM; IC50 (Capan2; Homo sapiens, Capan-2, 72 h, Capan2, agent alone, 3 days, read-out: IC50 monotherapy): 20 nM; IC50 (Panc1; [9]): 8.5 nM"
n.s.,n.s.,n.s.,3,n.s.,"CC1(C)CCC(CN2CCN(c3ccc(C(=O)NS(=O)(=O)c4ccc(NCC5CCOCC5)c([N+](=O)[O-])c4)c(Oc4cnc5[nH]ccc5c4)c3)CC2)=C(c2ccc(Cl)cc2)C1 [Bcl2i (ABT199), (4-(4-{[2-(4-chlorophenyl)-4,4-dimethylcyclohex-1-en-1-yl]methyl}piperazin-1-yl)-N-({3-nitro-4-[(tetrahydro-2H-pyran-4-ylmethyl)amino]phenyl}sulfonyl)-2-(1H-pyrrolo[2,3-b]pyridin-5-yloxy)benzamide)]",n.s.,n.s.,20%,60%,n.s.,50%,80%,n.s.,5%,30%,"Fold change IC50 (DR5 ab mono vs combo) (HCT116): 500; IC50 combo (SW480; DR5 ab + Fc titrated in combination with 1x IC50 of the named compound, 3 days, n.s. = not significant): n.s."
17,10,n.s.,–,–,CN(C)CC(=O)Nc1ccc2[nH]c(=O)c3ccccc3c2c1.Cl [PARPi (PJ34)],70%,n.s.,–,n.s.,n.s.,–,–,–,–,–,% max. inhibition (mono) (Aspc1; Aspc1): 10%
–,–,–,83,n.s.,"CCc1c2c(nc3ccc(OC(=O)N4CCC(N5CCCCC5)CC4)cc13)-c1cc3c(c(=O)n1C2)COC(=O)[C@]3(O)CC [Irinotecan, (S)-4,11-diethyl-3,4,12,14-tetrahydro-4-hydroxy-3,14-dioxo1H-pyrano[3′,4′:6,7]-indolizino[1,2-b]quinolin-9-yl-[1,4′bipiperidine]-1′-carboxylate]",–,–,–,–,–,60%,95%,100%,60%,95%,IC50 (HT29; [12]): 9000 nM; % max. inhibition (mono) (HT29): 40%
